Test results: article PMC10485887, “PET Evaluation of the Novel F-18 Labeled Reversible Radioligand [^18F]GEH200449 for Detection of Monoamine Oxidase-B in the Non-Human Primate Brain” (ACS Chemical Neuroscience, 2023)
Values joined by “and” are separate entries in the source; they are usually repeats but may differ in a detail not shown here. Equal entries are not always repeated. Where two headings read alike, the source gives them in different places.

Experiments:
MAO-B [1] = tested on: MAO-B; parameters: method as in PMID 31589885; conditions: cited from earlier work
MAO-B [2] = type: in vivo, Macaca fascicularis
Method: Each PET measurement was performed on a separate experimental day. Experiments conducted in the same NHP were separated by at least 6 weeks. Baseline PET measurements were initially undertaken in each of the five NHPs.
Time curves for regional [^18F]GEH200449 binding at baseline were analyzed by kinetic modeling using 1-TC and 2-TC models,[32] and VT as outcome measures. Akaike information criterion[33] and F statistics were applied to select the preferred model. Regional estimates of VT for [^18F]GEH200449 were also obtained using the Logan linear graphical method[34] with t* fixed at 40 min. The analyses were performed using the kinetic modeling tool in PMOD v. 4.3. Occupancy at [^18F]GEH200449 binding sites was estimated based on regional VT values obtained by the Logan method at baseline and after drug administration according to a graphical procedure described in the literature.[22]

N#Cc1cc(F)cc(-c2nc(-c3ccc(F)cn3)no2)c1 [AZD9272]
affinity toward MAO-B (MAO-B [1]): high affinity | effect on [^18F]GEH200449 regional radioactivity (MAO-B [2]; 0.15 mg/kg, 15 min before PET, NHP #3): reduction

CN1CC(=O)NC1=NC(=O)Nc1cccc(Cl)c1 [fenobam]
affinity toward MAO-B (MAO-B [1]): high affinity | effect on [^18F]GEH200449 regional radioactivity (MAO-B [2]; 1.0 mg/kg, 15 min before PET, NHP #5): reduction

C#CCN[C@@H]1CCc2ccccc21 [rasagiline, N-Propargyl-1R(+)-Aminoindan]
occupancy at MAO-B ([^18F]GEH200449 binding sites) (MAO-B [2]; 0.75 mg/kg IV, 45 min before radioligand, NHP #4, graphical analysis of VT): 97% and > 80% | inhibitory effect on [^18F]GEH200449 binding, dose dependency (MAO-B [2]; 0.25 and 0.75 mg/kg pretreatment, NHP #4): more pronounced after the higher dose | effect on [^18F]GEH200449 regional radioactivity (MAO-B [2]; pretreatment 45 min before radioligand injection): inhibited
